Reference: US4526967A, “Benzoquinolizines and use as α2 -adrenoceptor antagonistics” (John Wyeth & Brother Limited, priority 1983, dated 1985)

How the values were obtained:
α1 -adrenoceptors = molecular target: T1, α1 -adrenoceptors (Rattus norvegicus, UniProt P43140); assay: α1 antagonistic activity on the isolated anococcygeus muscle of the rat (antagonism of phenylephrine or methoxamine); details: agonist phenylephrine or methoxamine, Arunlakshana & Schild, read-out: pA2 values for α1 antagonistic activity (converted)
T1 construct: isolated anococcygeus muscle of the rat; from tissue; host or cells: rat anococcygeus muscle (male, 250-360 g)
T1 sequence (P43140 1-466): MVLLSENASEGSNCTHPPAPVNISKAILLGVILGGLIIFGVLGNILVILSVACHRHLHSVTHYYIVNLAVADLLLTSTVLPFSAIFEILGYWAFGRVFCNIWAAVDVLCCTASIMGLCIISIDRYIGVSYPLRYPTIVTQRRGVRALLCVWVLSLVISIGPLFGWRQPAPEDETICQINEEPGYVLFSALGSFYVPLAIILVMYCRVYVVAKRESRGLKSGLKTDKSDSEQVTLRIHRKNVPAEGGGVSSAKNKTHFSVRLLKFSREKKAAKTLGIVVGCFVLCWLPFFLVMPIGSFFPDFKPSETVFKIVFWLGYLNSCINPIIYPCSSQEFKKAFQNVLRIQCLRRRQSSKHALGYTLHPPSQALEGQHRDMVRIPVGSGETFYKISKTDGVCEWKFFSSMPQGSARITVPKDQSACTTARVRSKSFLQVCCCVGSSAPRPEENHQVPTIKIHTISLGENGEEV
Excerpt: The compounds of the invention generally antagonise the α2 -adrenoceptors to a much greater extent than the α1 -adrenoceptors. The α1 antagonistic activity can be evaluated by a number of different methods. One method involves assessing the activity on the isolated anococcygeus muscle of the rat. The method is based on that of Gillespie, Br.J.Pharmac., 1972, 45, 404-416. In the procedure male rats (250-360 g) are killed by a blow on the head and bled. The two anococcygeus muscles are removed from their position in the midline of the pelvic cavity, where they arise from the upper coccygeal vertebrae. The muscles are suspended in 5 ml organ baths in Krebs solution containing […] ascorbic acid, to prevent drug oxidation. The tissues are gassed with a 95% oxygen, 5% CO2 mixture and maintained at 37°. Longitudinal muscle contractions are recorded using isotonic transducers. Cumulative dose response curves are then obtained to phenylephrine or in some cases methoxamine, both agents being […] alpha adrenoceptor agonists. The concentration range of phenylephrine or methoxamine used is 0.02 to 0.8 μg.ml^-1. The agonist is then washed from the bath and the test drug added to the bathing medium at a concentration of 10^-6 M. After 30 min equilibration with the test drug a further agonist dose response curve is obtained. The washing, equilibration and agonists dosing procedures are then repeated using 10^-5 M and 10^-4 M solutions of the test drug. Estimates of the pA2 value for the test drug as an antagonist of phenylephrine or methoxamine were made from the agonist dose-ratios using the method of Arunlakshana & Schild, Br. J.Pharmac.Chemother., 1959, 14, 48-58.

α2 -adrenoceptor = molecular target: T2, α2 -adrenoceptor (Rattus norvegicus, UniProt P22909); assay: α2-adrenoceptor antagonistic activity on the rat field stimulated vas deferens preparation (antagonism of clonidine); details: for α2 /α1 selectivity: antilog of (α2 pA2 -α1 pA2); for Kb: rat field stimulated vas deferens, agonist clonidine, Schild plot (Arunlakshana & Schild), read-out: pA2 for α2 -adrenoceptor antagonistic activity (converted)
T2 construct: from tissue; host or cells: rat vas deferens (desheathed, field stimulated)
T2 sequence (P22909 1-465): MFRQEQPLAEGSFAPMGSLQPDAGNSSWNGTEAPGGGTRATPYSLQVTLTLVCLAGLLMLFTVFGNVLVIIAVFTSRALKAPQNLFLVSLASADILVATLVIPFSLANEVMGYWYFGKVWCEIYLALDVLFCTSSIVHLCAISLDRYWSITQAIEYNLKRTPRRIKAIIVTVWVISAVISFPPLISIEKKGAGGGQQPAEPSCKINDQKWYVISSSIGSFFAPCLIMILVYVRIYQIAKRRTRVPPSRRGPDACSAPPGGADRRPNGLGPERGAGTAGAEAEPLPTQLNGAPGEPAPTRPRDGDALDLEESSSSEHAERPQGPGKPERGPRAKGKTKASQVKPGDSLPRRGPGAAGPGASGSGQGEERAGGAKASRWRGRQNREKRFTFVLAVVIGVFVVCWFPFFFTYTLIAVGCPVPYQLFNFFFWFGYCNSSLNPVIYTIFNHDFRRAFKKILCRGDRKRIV
Protocol: The compounds of the invention are tested for α2 -adrenoceptor antagonistic activity on the rat field stimulated vas deferens preparation using a modification of the metod of Drew, Eur. J. Pharmac., 1977, 42, 123-130. The procedure is described below.
Desheathed vasa deferentia from sexually mature rats were suspended in a 6 ml organ bath in Krebs solution at 37° and bubbled with 5% CO2 in oxygen. Platinum ring electrodes were positioned above and below the tissue for field stimulation, the stimulus parameters being 0.1 Hz 1 ms pulse width at supramaximal voltage. Twitch responses were recorded isotonically with a 0.5 g loading. Clonidine hydrochloride was used as the α-adrenoceptor agonist and cumulative concentration-response curves were constructed for the inhibition of twitch obtained with clonidine in the range 0.125 to 4 ng ml^-1. After washing out clonidine, the twitch response quickly recovered and an antagonist was then introduced into the Krebs reservoir. Clonidine concentration-response curves were repeated 90 min after introduction of the antagonist. The concentration of clonidine producing 50% inhibition of twitch before and after introduction of antagonist were obtained and the dose-ratio for clonidine was calculated. Various concentrations of the antagonists were used.
Chemother., 1959, 14, 48-58 and the values of pA2 and slope were calculated.

SMILES	Kb (α1 -adrenoceptors) [nM]	α2 /α1 selectivity (α2 -adrenoceptor)	Kb (α2 -adrenoceptor) [nM]
CS(=O)(=O)NCCN([C@H]1CCN2CCc3ccccc3[C@H]2C1)S(=O)(=O)c1ccccc1 (relative stereo) [Example 13, N-((2β,11bα)-1,3,4,6,7,11b-Hexahydro-2H-benzo[a]quinolizin-2-yl)-N-(2-methanesulphonamidoethyl)benzenesulphonamide]	631	83	7.59
CCCS(=O)(=O)N(CCNS(C)(=O)=O)[C@H]1CCN2CCc3ccccc3[C@H]2C1 (relative stereo) [Example 12, N-((2β,11bα)-1,3,4,6,7,11b-Hexahydro-2H-benzo[a]quinolizine-2-yl)-N-(2-methanesulphonamidoethyl)-n-propanesulphonamide]	1580	309	5.13
CS(=O)(=O)NCCN([C@H]1CCN2CCc3ccccc3[C@H]2C1)S(C)(=O)=O (relative stereo) [Example 2, N-[(2β,11bα)-1,3,4,6,7,11b-Hexahydro-2H-benzo[a]quinolizin-2-yl]-N-(2-methanesulphonamidoethyl)methanesulphonamide]	4790	407	11.7
